The target of this assay is ABCG2 (Homo sapiens, UniProt Q9UNQ0). The assay is described as follows: biochemical.
Chain of ABCG2 (Q9UNQ0 whole entry): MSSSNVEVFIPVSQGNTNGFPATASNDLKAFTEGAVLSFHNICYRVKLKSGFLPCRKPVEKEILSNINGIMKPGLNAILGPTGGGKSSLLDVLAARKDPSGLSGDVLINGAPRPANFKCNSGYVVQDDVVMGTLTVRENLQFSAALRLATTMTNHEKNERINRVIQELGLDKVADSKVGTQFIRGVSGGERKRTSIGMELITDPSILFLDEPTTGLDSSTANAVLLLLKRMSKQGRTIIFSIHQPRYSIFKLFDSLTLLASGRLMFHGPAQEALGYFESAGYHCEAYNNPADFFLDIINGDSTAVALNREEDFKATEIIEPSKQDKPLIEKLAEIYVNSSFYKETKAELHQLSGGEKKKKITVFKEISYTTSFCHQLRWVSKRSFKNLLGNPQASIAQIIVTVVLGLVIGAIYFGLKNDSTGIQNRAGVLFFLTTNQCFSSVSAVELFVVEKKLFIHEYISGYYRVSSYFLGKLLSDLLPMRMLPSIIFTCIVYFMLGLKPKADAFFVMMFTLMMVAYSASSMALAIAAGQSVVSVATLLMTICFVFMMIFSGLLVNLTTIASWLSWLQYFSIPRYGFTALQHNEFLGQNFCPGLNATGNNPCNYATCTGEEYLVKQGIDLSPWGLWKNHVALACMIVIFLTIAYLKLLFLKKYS
`O=C1c2c(O)ccc(O)c2C(=O)c2c(NCCNCCO)ccc(NCCNCCO)c21` [mitoxantrone]: the EC50 (commonly the concentration that produces a half-maximal response) stood at 18.3 ± 2.2 µM.

Compound `COc1cc2c(cc1OC)CN(CCc1ccc(NC(=O)c3cc(OC)c(OC)cc3NC(=O)c3cnc4ccccc4c3)cc1)CC2` [tariquidar] had an EC50 of 0.08 ± 0.01 µM. This EC50 is about 230-fold lower than that of the compound before.

Take `CC[C@@]1(O)C(=O)OCc2c1cc1n(c2=O)Cc2cc3c(CN(C)C)c(O)ccc3nc2-1` [topotecan]: the EC50 was 11.7 ± 0.3 µM.

Values taken from doi:10.1101/2021.02.18.431786v1 (biorxiv, 2021).
